From publication PMC2713172 (Biochemistry, 2008)

Assays:
[1] = biological target: CYP2C9 F114L/F476L double mutant (Homo sapiens, UniProt P11712, F114L/F476L)
[2] = biological target: T1, CYP2C9 F114W/F476W double mutant (Homo sapiens, UniProt P11712, F114W/F476W)
wild-type CYP2C9 = wild-type CYP2C9 (Homo sapiens, UniProt P11712)
CYP2C9 F114L mutant = CYP2C9 F114L mutant (Homo sapiens, UniProt P11712, F114L); conditions: F114L
CYP2C9 F114W mutant = CYP2C9 F114W mutant (Homo sapiens, UniProt P11712, F114W); conditions: F114W
[3] = biological target: T1, CYP2C9 F114W/F476W double mutant; experiment: in vitro; conditions: pH 7.4
CYP2C9 F100L mutant = CYP2C9 F100L mutant (Homo sapiens, UniProt P11712, F100L); experiment: biochemical
CYP2C9 F476W mutant = CYP2C9 F476W mutant (Homo sapiens, UniProt P11712, F476W); experiment: biochemical

C[C@H](C(=O)O)c1ccc(-c2ccccc2)c(F)c1 [(S)-flurbiprofen]
percent of wild-type kcat/Km [1]: 3% | percent of wild-type kcat/Km [2]: 3% | kcat ([2]; substrate hydroxylation): 0.0517 ± 0.0013 s⁻¹ | fraction high spin (wild-type CYP2C9; WT + ligand, used for the NMR distance calculation): 0.16 | percent of wild-type ΔA/K (wild-type CYP2C9; Wild-type): 100% | ΔA/K (wild-type CYP2C9; Wild-type): 5.3 μM^−1 × 10^−3 | ΔAmax (maximum observed difference 390–420 nm) (wild-type CYP2C9; Wild-type): 18 ± 0.5 ×10^−3 | percent of wild-type ΔA/K (CYP2C9 F114L mutant): 46% | ΔA/K (CYP2C9 F114L mutant): 2.4 μM^−1 × 10^−3 | ΔAmax (maximum observed difference 390–420 nm) (CYP2C9 F114L mutant): 10 ± 0.4 ×10^−3 | percent of wild-type ΔA/K (CYP2C9 F114W mutant): 160% | ΔA/K (CYP2C9 F114W mutant): 8.5 μM^−1 × 10^−3 | ΔAmax (maximum observed difference 390–420 nm) (CYP2C9 F114W mutant): 34 ± 0.4 ×10^−3 | Km at 20 min [3]: 237 ± 11.8 µM | Kd (CYP2C9 F100L mutant): 2.2 ± 0.2 µM | Kd (CYP2C9 F476W mutant): 18.3 ± 1.9 µM
